Consider 13 compounds from US8377913B2, “Vitamin D receptor activators and methods of making” (AbbVie Inc., priority 2007, dated 2013).

Holding throughout (assay type): cell-based
In assay [1] the test system is VDR (VDRE-luciferase-reporter construct). Put plainly: VDRE Reporter Gene Assay in HEK cells with stable expression of VDR. The conditions noted are these: Homo sapiens, HEK293, 24 hours. The procedure: Compound activity was also assessed by looking at a Vitamin D Response Element (VDRE) reporter gene assay, Human Embryonic Kidney cells (HEK cells) with a stable expression of VDR were cultured in 96-well plates at ˜4×10^5 cells/mL (100 μL/well) in DMEM medium containing 10% fetal calf serum. Cells were transfected with 0.2 μg per well of a VDRE-luciferase-reporter construct (from Y. Li, University of Chicago) and then treated with test agents at indicated concentrations for 24 hours. The luciferase activity was then measured following the manufacturer's instructions (Promega, Madison, Wis.).

Assay [2] concerns Renin mRNA in As4.1 cells. Put plainly: Renin mRNA in As4.1 cells transfected with pcDNA-hVDR (real-time RT-PCR). The method, then: As4.1 cells (ATCC, Manassas, Va.) were cultured in Dulbecco's Modified Eagle Medium DMEM (commercially available from Invitrogen, Carlsbad, Calif.) with 10% fetal bovine serum at 37° C. in a humidified 5% CO2-95% air atmosphere. C3;ells were transfected with the pcDNA-hVDR plasmid (provided by Yan Chun Li, University of Chicago) by LIPOFECTAMINE™ 2000 (Invitrogen, Carlsbad, Calif.). siRNA was transfected with the pcDNA-hVDR plasmid by LIPOFECTAMINE™ 2000 according to the manufacturer's protocol. Twenty-four hours after transfection, cells were treated with test agents.
Real-time reverse transcription-PCR was performed with a MyiQ Real-time PCR Detection System (commercially available from BioRad, Hercules, Calif.). […] TaqMan™ probes that were 5′ labeled with the reporter 6-carboxyfluorescein (FAM) and 3′ labeled with the quencher tetramethylrhodamine (TAMRA) were used and the primer and probe sets were obtained from Applied Biosystems (Foster City, Calif.). Temperature conditions consisted of a step of 5 minutes at 95° C., followed by 45 cycles of 60° C. for 1 minute and 95° C. for 15 seconds. Data was collected during each extension phase of the PCR reaction and analyzed with the accompanying software package (BioRad, Hercules, Calif.). Threshold cycles were determined for each gene.

For assay [3], the system named is Human promyelocytic leukemia (HL60) cells. Put plainly: HL-60 Differentiation. The conditions noted are these: HL-60, 96 h, four days incubation, NBT, absorbance 570 nm. The procedure: Human promyelocytic leukemia (HL60) cells were obtained from the American Type Culture Collection (ATCC Cat. # CCL-240, Manassas, Va.). Cells were maintained in RPMI 1640 medium (commercially available from Invitrogen, Carlsbad, Calif.) containing 10% fetal bovine serum (commercially available from Invitrogen, Carlsbad, Calif.) at 37° C. with 5% CO2. Cells were passaged weekly and were not allowed to become >90% confluent. For the assay, cells were plated at 5×10^5 cells per well in 200 uL media. Test compounds were diluted in media in concentrations between 10^−6-10^−10 M and then added to the appropriate wells. Cells were then incubated for four days at 37° C. in 5% CO2 atmosphere. After incubation, media was aspirated from each well and 75 uL of NBT solution (nitroblue tetrazolinium: 200 ng/mL PMA (phorbol 12-myrystate 13-acetate) and 2 mg/ml NBT (nitroblue tetrazolium) in distilled H2O) was added to each well followed by further incubation for 2 hours at 37° C. Following incubation, 150 uL lysis buffer (225 mL dimethylformamide, 67.5 g SDS). PMA stock solution (2 mg/ml in ethanol) was added to each well and the plate was allowed to sit at room temperature for 4 hours. HL-60 cell differentiation was assayed, Effect of each compound on cell growth was examined as a function of time; absorbance in each well was measured at 570 nm.

In assay [4] the test system is Thrombomodulin mRNA in human coronary artery smooth muscle cells (CASMC). The assay can be described thus: Thrombomodulin mRNA in CASMC. The conditions noted are these: for EC50: Homo sapiens. The procedure: (§1) Primary culture of human coronary artery smooth muscle cells (CASMC) (commercially available from Cambrex, Walkersville, Md.) were grown in smooth muscle growth medium SmGM-2 (commercially available from Lonza Bioscience) containing 5.5 mM glucose, 5% FBS, 50 μg/ml gentamicin, 50 ng/ml amphotericin-B, 5 μg/ml insulin, 2 ng/ml human recombinant fibroblast growth factor (hFGF), and 0.5 ng/ml human recombinant epidermal growth factor (hEGF) at 37° C. in a humidified 5% CO2-95% air atmosphere. Cells were grown to >80% confluence and used within five passages.
(§2) Real-time reverse transcription-PCR was performed with a MyiQ Real-Time PCR Detection System (BioRad, Hercules, Calif.). Each sample has a final volume of 25 μl containing 100 ng of cDNA, […] each of the forward and reverse PCR primers and […] of the TaqMan™ probe for the gene of interest (Applied Biosystems, Foster City, Calif.). Temperature conditions consisted of a step of 5 minutes at 95° C., followed by 40 cycles of 60° C. for 1 minute and 95° C. for 15 seconds. Data was collected during each extension phase of the PCR reaction and analyzed with the software package (BioRad, Hercules, Calif.). Threshold cycles were determined for each gene. […]

The subject of assay [5] is Thrombospondin mRNA in human coronary artery smooth muscle cells (CASMC). Put plainly: Thrombospondin mRNA in CASMC. The conditions noted are these: for IC50: Homo sapiens. The method, then: as §1, §2
Assay [6] relates to PAI-1 mRNA in human coronary artery smooth muscle cells (CASMC). Put plainly: PAI-1 mRNA in CASMC. The conditions noted are these: for IC50: Homo sapiens. The method, then:
as §1, §2

In the case of `C=C1[C@H](CO)C/C(=C\C=C2/CCC[C@]3(C)[C@@H]([C@H](C)CCCC(C)(C)O)CC[C@@H]23)C[C@H]1O` [Example 16, (1R,3R,5E,7E,17β)-17-[(1R)-5-hydroxy-1,5-dimethylhexyl]-3-(hydroxymethyl)-2-methylene-9,10-secoestra-5,7-dien-1-ol], the EC50 was found to be 71.7 nM in assay [1] and 43 nM in assay [3]. The compound also displayed an IC50 in assay [2] of 14.7 nM.

On to `C[C@H](CC[C@@H](C)C(C)(C)O)[C@H]1CC[C@H]2/C(=C/C=C3C[C@@H](O)C[C@H](O)C3)CCC[C@]12C` [Example 15, (1R,3R,7E,17β)-17-[(1R,4R)-5-hydroxy-1,4,5-trimethylhexyl]-9,10-secoestra-5,7-diene-1,3-diol], for which the EC50 in assay [1] was 0.4 nM; in assay [4] it was 10.7 nM; in assay [3], 1.2 nM. In addition, the IC50 was determined as 0.04 nM in assay [2] and 0.01 nM in assay [6]. In addition, the “Thrombospondin mRNA in CASMC IC50” value in assay [5] is “inactive”.

As for `C=C1[C@H](O)C/C(=C\C=C2/CCC[C@]3(C)[C@@H]([C@H](C)CCCC(C)(C)O)CC[C@@H]23)C[C@@H]1F` [Example 18, (1R,3S,5E,7E,17β)-3-fluoro-17-[(1R)-5-hydroxy-1,5-dimethylhexyl]-2-methylene-9,10-secoestra-5,7-dien-1-ol], the figures for the EC50 in assay [1] and in assay [3] were 11.3 nM and 10 nM, respectively. Moreover, 0.1 nM corresponded to half-maximal inhibition in assay [2] (IC50).

`C=C1[C@H](O)CC(=C/C=C2\CCC[C@]3(C)[C@@H]([C@H](C)COc4ccccc4)CC[C@@H]23)C[C@H]1O` [Example 12, (1R,3R,7E,17β)-2-methylene-17-[(1S)-1-methyl-2-phenoxyethyl]-9,10-secoestra-5,7-diene-1,3-diol]: the results for the EC50 in assay [1], in assay [4] and in assay [3] were 16.9 nM, 0.1 nM and 0.2 nM, respectively. For the same compound, the IC50 in assay [2] turned out to be 0.2 nM; in assay [5], 0.02 nM; in assay [6], 11.5 nM.

Regarding `C=C1/C(=C\C=C2/CCC[C@]3(C)[C@@H]([C@H](C)C(C[C@@H](C)C(C)(C)OC)OC)CC[C@@H]23)C[C@@H](O)C[C@@H]1O` (stereo partly drawn) [Example 10, (1S,3R,5Z,7E,24R)-22,25-dimethoxy-9,1 0-secoergosta-5,7,10-triene-1,3-diol], the EC50 was 150 nM in assay [1], 0.2 nM in assay [4] and 621 nM in assay [3]. In addition, the IC50 in assay [2] is 3.9 nM; in assay [5] it was 0.01 nM; in assay [6] it was 0.04 nM.

Consider `C=C1[C@H](O)CC(=C/C=C2\CCC[C@]3(C)[C@@H]([C@H](C)COC(=O)C(C)(C)OC(C)=O)CC[C@@H]23)C[C@H]1O` [Example 6, (2S)-2-[(1R,3R,7E,17β)-1,3-dihydroxy-2-methylene-9,10-secoestra-5,7-dien-17-yl]propyl 2-(acetyloxy)-2-methyl propanoate], for which the EC50 in assay [1] was found to be 1.3 nM; in assay [3], 12 nM. Also, the IC50 in assay [2] worked out at 18.6 nM; in assay [5], 1.3 nM. Moreover, the “Thrombomodulin mRNA in CASMC EC50” value in assay [4] was “inactive”. For the same compound, the “PAI-1 mRNA in CASMC IC50” value in assay [6] was “inactive”.

Regarding `C=C1[C@H](O)CC(=C/C=C2\CCC[C@]3(C)[C@@H]([C@H](C)COC(=O)C(C)(C)O)CC[C@@H]23)C[C@H]1O` [Example 14, (2S)-2-[(1R,3R,7E,17β)-1,3-dihydroxy-2-methylene-9,10-secoestra-5,7-dien-17-yl]propyl 2-hydroxy-2-methylpropanoate], the EC50 came out at 0.6 nM in assay [1], 5.1 nM in assay [4] and 9 nM in assay [3]. Further, the IC50 in assay [2] turned out to be 0.03 nM; in assay [5], 0.02 nM; in assay [6], 0.04 nM.

On to `COC(C[C@@H](C)C(C)(C)OC)[C@@H](C)[C@H]1CC[C@H]2/C(=C/C=C3C[C@@H](O)C[C@H](O)C3)CCC[C@]12C` (stereo partly drawn) [Example 11, (1R,3R,7E,17β)-17-[(1S,4R)-2,5-dimethoxy-1,4,5-trimethylhexyl]-9,10-secoestra-5,7-diene-1,3-diol], for which the EC50 in assay [1] came to 182 nM; in assay [4], 28.4 nM; in assay [3], 310 nM. The IC50 in assay [2] was 0.002 nM; in assay [5], 0.01 nM; in assay [6], 0.01 nM.

Take `C=C1[C@H](O)C/C(=C/C=C2\CCC[C@]3(C)[C@@H]([C@H](C)CCCC(C)(C)O)CC[C@@H]23)C[C@@H]1F` [Example 13, (1R,3S,5Z,7E,17β)-3-fluoro-17-[(1R)-5-hydroxy-1,5-dimethylhexyl]-2-methylene-9,10-secoestra-5,7-dien-1-ol]: the figures for the EC50 in assay [1], in assay [4] and in assay [3] were 276 nM, 80.2 nM and 52 nM, respectively. In addition, the IC50 in assay [2] came to 0.9 nM; in assay [5] it was 0.03 nM; in assay [6], 0.01 nM.

With `C=C1[C@H](CO)C/C(=C\C=C2/CCC[C@]3(C)[C@@H]([C@H](C)OCCC(C)(C)O)CC[C@@H]23)C[C@H]1O` [Example 17, (1R,3R,5E,7E,17β)-3-(hydroxymethyl)-17-[(1S)-1-(3-hydroxy-3-methylbutoxy)ethyl]-2-methylene-9,10-secoestra-5,7-dien-1-ol], the figures for the EC50 in assay [1] and in assay [3] were 153 nM and 92.5 nM, respectively. In assay [2], this compound gave an IC50 of 2.2 nM.

Regarding `C=C1[C@H](O)CC(=C/C=C2\CCC[C@]3(C)[C@@H]([C@H](C)CC[C@H](C)C(C)C)CC[C@@H]23)C[C@H]1O` [Example 7, (1R,3R,7E)-2-methylene-17-[(1R,4S)-1,4,5-trimethylhexyl]-9,10-secoestra-5,7-diene-1,3-diol], the EC50 stood at 12.2 nM in assay [1], 0.6 nM in assay [4] and 12.5 nM in assay [3]. Besides, the IC50 in assay [2], in assay [5] and in assay [6] was 0.1 nM in each case.

Regarding `C=C1[C@H](O)CC(=C/C=C2\CCC[C@]3(C)[C@@H]([C@H](C)OCCC(C)(C)O)CC[C@@H]23)C[C@H]1O` [Example 8, (1R,3R,7E,17β)-17-[(1S)-1-(3-hydroxy-3-methylbutoxy)ethyl]-2-methylene-9,10-secoestra-5,7-diene-1,3-diol], the EC50 in assay [1] was less than 0.01 nM; in assay [4], 39.3 nM; in assay [3], 31.5 nM. For the same compound, the IC50 in assay [2] is 0.3 nM; in assay [5] it was 0.05 nM; in assay [6], 0.02 nM.

`CC(C)[C@@H](C)CC[C@@H](C)[C@H]1CC[C@H]2/C(=C/C=C3C[C@@H](O)C[C@H](O)C3)CCC[C@]12C` [Example 9, (1R,3R,7E)-17-[(1R,4S)-1,4,5-trimethylhexyl]-9,10-secoestra-5,7-diene-1,3-diol]: the EC50 in assay [1] is greater than 10000 nM; in assay [4], 0.1 nM; in assay [3] it was 434 nM. Besides, the “Renin mRNA in AS4.1 IC50” value in assay [2] was “inactive”. Moreover, the IC50 turned out to be 0.3 nM in assay [5] and 0.1 nM in assay [6].
